The target in this experiment is S. pneumoniae Topoisomerase IV ATPase (ParE) (Streptococcus pneumoniae serotype 4, UniProt Q59961). Nature of the experiment: S. pneumoniae Topoisomerase IV ATPase inhibition. The experiment is classed as biochemical. The conditions noted are these: values marked * are an average of two or more data points, read-out: % Inh (13 μM) of S. pneumoniae Topoisomerase IV ATPase. Summed up:
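Phosphate-release ATPase assay: 1.25 nM ParE, 160 μM ATP, DNA-stimulated. Quench with malachite green/molybdate in 1 M HCl, read 650 nm; IC50 from 10-point dose series.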
Sequence of S. pneumoniae Topoisomerase IV ATPase (ParE) (Q59961 whole entry): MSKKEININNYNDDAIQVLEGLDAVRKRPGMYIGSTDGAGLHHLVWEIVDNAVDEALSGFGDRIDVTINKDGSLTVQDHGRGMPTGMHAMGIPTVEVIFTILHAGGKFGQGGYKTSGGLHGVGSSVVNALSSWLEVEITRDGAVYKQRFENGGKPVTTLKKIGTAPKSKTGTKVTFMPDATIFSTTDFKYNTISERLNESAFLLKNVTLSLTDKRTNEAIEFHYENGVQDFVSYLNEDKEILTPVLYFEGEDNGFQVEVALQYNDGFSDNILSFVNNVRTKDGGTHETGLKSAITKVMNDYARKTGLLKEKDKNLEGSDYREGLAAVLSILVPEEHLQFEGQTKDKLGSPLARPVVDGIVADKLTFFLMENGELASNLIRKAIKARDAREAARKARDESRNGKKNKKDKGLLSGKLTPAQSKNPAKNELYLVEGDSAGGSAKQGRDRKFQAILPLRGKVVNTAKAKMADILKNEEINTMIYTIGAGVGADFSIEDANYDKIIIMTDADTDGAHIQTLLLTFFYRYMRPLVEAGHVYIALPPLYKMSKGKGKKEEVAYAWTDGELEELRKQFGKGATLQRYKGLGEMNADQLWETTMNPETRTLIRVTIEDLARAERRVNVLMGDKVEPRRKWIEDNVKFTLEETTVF
On to `CN(C)CCCNc1nc(Nc2ccc(F)c(Cl)c2)ncc1-c1ccc(N)nc1` [Example 21, 5-(6-aminopyridin-3-yl)-N^2-(3-chloro-4-fluorophenyl)-N^4-[3-(dimethylamino)propyl]pyrimidine-2,4-diamine], for which the inhibition at 13 µM worked out at 71.7%. As for `COc1cc(Nc2ncc(-c3cnc(OC)c(C(=O)O)c3)c(-n3ccc(C(F)(F)F)n3)n2)cc(OC)c1` [Example 675, 5-{2-[(3,5-dimethoxyphenyl)amino]-4-[3-(trifluoromethyl)-1H-pyrazol-1-yl]pyrimidin-5-yl}-2-methoxypyridine-3-carboxylic acid], the figure is 100%. Then `NC(=O)CCNc1nc(Nc2ccc(F)c(Cl)c2)ncc1-c1cncc(C(=O)O)c1` [Example 226, 5-[4-(2-Carbamoyl-ethylamino)-2-(3-chloro-4-fluoro-phenylamino)-pyrimidin-5-yl]-nicotinic acid], with 79.5%; and `COc1ncc(-c2cnc(Nc3cccc(Cl)c3)nc2-n2ccc(C(F)(F)F)n2)cc1C(=O)O` [Example 742, 5-{2-[(3-chlorophenyl)amino]-4-[3-(trifluoromethyl)-1H-pyrazol-1-yl]pyrimidin-5-yl}-2-methoxypyridine-3-carboxylic acid], with 100%; and `O=C(O)/C=C/c1cccc(-c2cnc(Nc3ccc(F)c(Cl)c3)nc2NCCn2ccnc2)c1` [Example 266, (2E)-3-[3-(2-[(3-chloro-4-fluorophenyl)amino]-4-{[2-(1H-imidazol-1-yl)ethyl]amino}pyrimidin-5-yl)phenyl]prop-2-enoic acid], with 109%. Turning to `CN(C)CCCNc1nc(Nc2ccc(F)c(Cl)c2)ncc1-c1cccc(C(=O)NCc2ccccc2)c1` [Example 362, N-benzyl-3-(2-(3-chloro-4-fluorophenylamino)-4-(3-(dimethylamino)propylamino)pyrimidin-5-yl) benzamide], the inhibition at 13 µM turned out to be 107%. Then `CC(C)(C)OC(=O)NCCNc1nc(Nc2ccc(F)c(Cl)c2)ncc1-c1cncnc1` [Example 41, tert-butyl N-[2-[[2-[(3-chloro-4-fluorophenyl)amino]-5-pyrimidin-5-ylpyrimidin-4-yl]amino]ethyl] carbamate], with 72.7%. As for `O=C(O)c1cc(-c2cnc(Nc3ccc(F)c(Cl)c3)nc2-n2ccc(C(F)(F)F)n2)cnc1NCCN1CCOCC1` [Example 1077, 5-(2-(3-Chloro-4-fluorophenylamino)-4-(3-(trifluoromthyl)-1H-pyrazol-1-yl)pyrimidin-5-yl)-2-(2-morpholinoethylamino)nicotinic acid], the figure is 99%; as for `CN(C)CCCNc1nc(Nc2ccc(F)c(Cl)c2)ncc1-c1ccc(C(=O)O)cc1` [Example 216, 4-(2-[(3-chloro-4-fluorophenyl)amino]-4-{[3-(dimethylamino)propyl]amino}pyrimidin-5-yl)benzoic acid], 96.3%; as for `Cc1cc(C(F)F)nn1-c1nc(Nc2ccc(F)c(Cl)c2)ncc1-c1cccc(/C=C/C(=O)O)c1` [Example 563, (2E)-3-(3-{2-[(3-chloro-4-fluorophenyl)amino]-4-[3-(difluoromethyl)-5-methyl-1H-pyrazol-1-yl]pyrimidin-5-yl}phenyl)prop-2-enoic acid], 100%. As for `COc1ncc(-c2cnc(Nc3cccc(C)c3)nc2-n2ccc(C(F)(F)F)n2)cc1C(=O)O` [Example 726, 2-methoxy-5-{2-[(3-methylphenyl)amino]-4-[3-(trifluoromethyl)-1H-pyrazol-1-yl]pyrimidin-5-yl}pyridine-3-carboxylic acid], the figure is 100%.

For the molecule `CC(C)Oc1ncc(-c2cnc(Nc3ccc(F)c(Cl)c3)nc2-n2ccc(C(F)(F)F)n2)cc1C(=O)O` [Example 959, 5-(2-(3-chloro-4-fluorophenylamino)-4-(3-(trifluoromethyl)-1H-pyrazol-1-yl)pyrimidin-5-yl)-2-isopropoxynicotinic acid], the inhibition at 13 µM is 93%.

For `Cc1cc(C(F)(F)F)nn1-c1nc(Nc2ccc(F)c(Cl)c2)ncc1-c1cncc(C(=O)O)c1` [Example 319, 5-{2-[(3-chloro-4-fluorophenyl)amino]-4-[5-methyl-3-(trifluoromethyl)-1H-pyrazol-1-yl]pyrimidin-5-yl}pyridine-3-carboxylic acid], the inhibition at 13 µM is 90.6%. Then `CCOC(=O)/C=C/c1cccc(-c2cnc(Nc3ccc(F)c(Cl)c3)nc2N2CCN(C(=O)N(C)C)CC2)c1` [Example 164, (E)-ethyl 3-(3-(2-(3-chloro-4-fluorophenylamino)-4-(4-(dimethylcarbamoyl)piperazin-1-yl)pyrimidin-5-yl)phenyl)acrylate], with 47%. As for `O=C(O)/C=C/c1cccc(-c2cnc(Nc3ccc(F)c(Cl)c3)nc2-n2nc3cccnc3n2)c1` [Example 334, (2E)-3-(3-{2-[(3-chloro-4-fluorophenyl)amino]-4-(2H-[1,2,3]triazolo[4,5-b]pyridin-2-yl)pyrimidin-5-yl}phenyl)prop-2-enoic acid], the figure is 104%; as for `Cc1cnc(C(=O)NCCCNc2nc(Nc3ccc(F)c(Cl)c3)ncc2-c2cncc(C(=O)O)c2)cn1` [Example 278], 77%; as for `COc1cc(Nc2ncc(-c3cnc(OC)c(C(=O)NS(=O)(=O)C(C)C)c3)c(-n3nc(C(F)(F)F)cc3C)n2)cc(OC)c1` [Example 819, 5-{2-[(3,5-dimethoxyphenyl)amino]-4-[5-methyl-3-(trifluoromethyl)-1H-pyrazol-1-yl]pyrimidin-5-yl}-2-methoxy-N-(propan-2-ylsulfonyl)pyridine-3-carboxamide], 100%. For the molecule `O=C(O)c1cccc(-c2cnc(Nc3ccc(F)c(Cl)c3)nc2-n2ccc(C(F)(F)F)n2)c1` [Example 570, 3-(2-(3-chloro-4-fluorophenylamino)-4-(3-(trifluoromethyl)-1H-pyrazol-1-yl)pyrimidin-5-yl)benzoic acid], the inhibition at 13 µM was 91%. Then `COc1cc(Nc2ncc(-c3cncc(C(=O)NS(C)(=O)=O)c3)c(-n3ccc(C(F)(F)F)n3)n2)cc(OC)c1` [Example 686, 5-{2-[(3,5-dimethoxyphenyl)amino]-4-[3-(trifluoromethyl)-1H-pyrazol-1-yl]pyrimidin-5-yl}-N-(methylsulfonyl)pyridine-3-carboxamide], with 100%; and `COCCCNc1nc(Nc2ccc(F)c(Cl)c2)ncc1-c1nc(-c2cccnc2)cs1` [Example 499, N^2-(3-chloro-4-fluorophenyl)-N^4-(3-methoxypropyl)-5-[4-(pyridin-3-yl)-1,3-thiazol-2-yl]pyrimidine-2,4-diamine], with 34%; and `COc1ncc(-c2cnc(Nc3cc(C)ccc3F)nc2-n2nc(C(F)(F)F)cc2C)cc1C(=O)O` [Example 757, 5-{2-[(2-fluoro-5-methylphenyl)amino]-4-[5-methyl-3-(trifluoromethyl)-1H-pyrazol-01-yl]pyrimidin-5-yl}-2-methoxypyridine-3-carboxylic acid], with 19%.

In the case of `COc1cc(Cl)cc(Nc2ncc(-c3cnc(OC)c(C(=O)O)c3)c(-n3ccc(C(F)(F)F)n3)n2)c1` [Example 758, 5-{2-[(3-chloro-5-methoxyphenyl)amino]-4-[3-(trifluoromethyl)-1H-pyrazol-1-yl]pyrimidin-5-yl}-2-methoxypyridine-3-carboxylic acid], the inhibition at 13 µM was 98%. Then `Cc1cc(C(F)F)n(-c2nc(Nc3ccc(F)c(Cl)c3)ncc2-c2cncc(C(=O)O)c2)n1` [Example 531, 5-{2-[(3-chloro-4-fluorophenyl)amino]-4-[5-(difluoromethyl)-3-methyl-1H-pyrazol-1-yl]pyrimidin-5-yl}pyridine-3-carboxylic acid], with 100%; and `O=C(O)/C=C/c1cccc(-c2cnc(Nc3ccc(F)c(Cl)c3)nc2N2CCOCC2)c1` [Example 290, (E)-3-(3-(2-(3-chloro-4-fluorophenylamino)-4-morpholinopyrimidin-5-yl)phenyl)acrylic acid], with 80.5%; and `COc1cc(Nc2ncc(-c3cccc(/C=C/C(=O)O)c3)c(NCCc3ccncc3)n2)cc(C(F)(F)F)c1` [Example 355, (E)-3-(3-(2-(3-methoxy-5-(trifluoromethyl)phenylamino)-4-(2-(pyridin-4-yl)ethylamino)pyrimidin-5-yl)phenyl) acrylic acid], with 86.6%. Take `COc1ncc(-c2cnc(Nc3cc(C)ccc3F)nc2-n2ccc(C(F)(F)F)n2)cc1C(=O)O` [Example 756, 5-{2-[(2-fluoro-5-methylphenyl)amino]-4-[3-(trifluoromethyl)-1H-pyrazol-1-yl]pyrimidin-5-yl}-2-methoxypyridine-3-carboxylic acid]: the inhibition at 13 µM turned out to be 56%. With `CCOC(=O)CNc1nc(Nc2ccc(F)c(Cl)c2)ncc1-c1cncnc1` [Example 54, ethyl 2-[[2-[(3-chloro-4-fluorophenyl)amino]-5-pyrimidin-5-ylpyrimidin-4-yl]amino]acetate], the inhibition at 13 µM was 77.5%.

Take `O=C(O)c1coc2ccc(-c3cnc(Nc4ccc(F)c(Cl)c4)nc3N3CCOCC3)cc2c1=O` [Example 459, 6-(2-(3-chloro-4-fluorophenylamino)-4-morpholinopyrimidin-5-yl)-4-oxo-4H-chromene-3-carboxylic acid]: the inhibition at 13 µM was 100%.

On to `COc1cc(Nc2ncc(-c3cnc(OC)c(C(=O)NS(=O)(=O)c4cn(C)cn4)c3)c(-n3nc(C(F)(F)F)cc3C)n2)cc(OC)c1` [Example 839, 5-{2-[(3,5-dimethoxyphenyl)amino]-4-[5-methyl-3-(trifluoromethyl)-1H-pyrazol-1-yl]pyrimidin-5-yl}-2-methoxy-N-[(1-methyl-1H-imidazol-4-yl)sulfonyl]pyridine-3-carboxamide], for which the inhibition at 13 µM is 100%.
